Experimental data as given in US7351744B2, “Naphthalene derivatives as termite repellents and toxicants” (Board of Supervisors of Louisiana State University and …, priority 2003, dated 2008).

Test system: C. formosanus workers
Test: whole plant or invertebrate
Assay type: in vivo, Coptotermes formosanus
Conditions: for Consumption (mg) day 8: wood slice
Protocol: Three-chambered transparent plastic containers as described in Example 4 were used to test the effectiveness of 2′-acetonaphthone as a barrier to prevent termites from reaching a food source. Each tested concentration of 2′-acetonaphthone was dissolved in 60 ml ethanol and mixed with 600 g of sand. For a control, 600 g of sand was mixed with 60 ml ethanol. The untreated and treated sand were placed in holding containers, and kept overnight at ambient conditions for solvent evaporation. In each container, sand was mixed with 60 ml DDH2O. Into the middle chamber, 110 g of either treated or untreated sand was gently added, packed, and leveled to clearly see tunnels. Six replicates were used for each concentration and control. Weighed balsa wood slices (0.159 cm×3.5 cm×6.0 cm, Ochroma lagopus Swartz) were placed in one of the two lateral chambers and wetted with 1 ml DDH2O. Into each container, 200 workers and 20 soldiers were released in the opposite lateral chamber from the wood slice. Termites were thus required to cross through the treated sand in the middle chamber to reach the food source. Containers were covered, and incubated in complete darkness at 27.4° C. and 70% RH. If necessary, 1 ml DDH2O was added to the sand and wood slice twice a week to maintain proper moisture. Three separate experiments were conducted using the same technique with different colonies.
In the first experiment, termites from Colony BS were used, and tested concentrations of 2′-acetonaphthone were 0.0, 16.67, 33.33, 50.0, 100.0, and 200.0 mg/kg sand. The number of dead workers was recorded daily to day 6. On day 6, the number of living workers in the releasing chamber was also recorded, and the bottoms of the three-chambered containers were scanned (ScanJet 4C, Hewlett-Packard, Palo Alto, Calif.). The images were printed in actual size, and the tunnel areas measured. After 8 days, the total number of living workers in each container was recorded; and the wood slices were gently cleaned using deionized water with a small brush. The slices were then oven dried at 60° C. for 3 h and reweighed. The difference in weight of the wood slices from the initial weighing was used to calculate food consumption.
The experiment was repeated a third time to further test for molting failures. The protocol was described as above. Five concentrations of 2′-acetonaphthone (4.15, 8.33, 16.67, 33.33, and 66.67 mg/kg sand) were evaluated using termites from colony WB. Tunnels were scanned, printed, and areas measured on days 2, 3, 4 and 7. Percent survival and food consumption were calculated on day 12 as previously described. To evaluate the effect of 2′-acetonaphthone treatments on worker survival, tunnel area and food consumption, an analysis of variance was conducted followed by a least significant difference procedure.

[1] = Coptotermes formosanus, 168 h, read-out: Mortality (%), day 7

Structure (SMILES): CC(=O)c1ccc2ccccc2c1 [2′-acetonaphthone]
- Food consumption (mg) day 12 (4.16 mg kg^−1, colony E): 27.1 ± 2.3 b mg
- Molting failure (%), day 7 (4.16 mg kg^−1, colony E): 26.7 ± 6.0 a %
- Survival (%) day 12 (4.16 mg kg^−1, colony E): 34.2 ± 6.0 a %
- Termite (%), workers counted in the releasing chambers on day 5 (4.16 mg kg^−1, colony E): 34.9 ± 2.8 b %
- Tunnel area (cm^2), day 12 (4.16 mg kg^−1, colony E): 22.8 ± 4.4 a cm^2
- Food consumption (mg) day 12 (4.16 mg/kg, colony WB): 35.0 ± 13.8 a mg
- Survival (%) day 12 (4.16 mg/kg, colony WB): 55.8 ± 7.3 a %
- Tunnel area (cm^2), day 2 (4.16 mg/kg, colony WB): 3.4 ± 1.6 a cm^2
- Tunnel area (cm^2), day 3 (4.16 mg/kg, colony WB): 6.1 ± 2.6 ab cm^2
- Tunnel area (cm^2), day 4 (4.16 mg/kg, colony WB): 8.0 ± 2.7 ab cm^2
- Tunnel area (cm^2), day 7 (4.16 mg/kg, colony WB): 17.0 ± 4.5 a cm^2
- Food consumption (mg) day 12 (8.33 mg kg^−1, colony E): 0.0 ± 0.0 c mg
- Molting failure (%), day 7 (8.33 mg kg^−1, colony E): 11.5 ± 1.9 b %
- Survival (%) day 12 (8.33 mg kg^−1, colony E): 4.2 ± 1.9 b %
- Termite (%), workers counted in the releasing chambers on day 5 (8.33 mg kg^−1, colony E): 77.9 ± 4.5 a %
- Tunnel area (cm^2), day 12 (8.33 mg kg^−1, colony E): 2.8 ± 1.9 b cm^2
- Food consumption (mg) day 12 (8.33 mg/kg, colony WB): 8.3 ± 3.1 b mg
- Survival (%) day 12 (8.33 mg/kg, colony WB): 7.4 ± 3.3 b %
- Tunnel area (cm^2), day 2 (8.33 mg/kg, colony WB): 2.3 ± 1.3 a cm^2
- Tunnel area (cm^2), day 3 (8.33 mg/kg, colony WB): 3.1 ± 1.2 bc cm^2
- Tunnel area (cm^2), day 4 (8.33 mg/kg, colony WB): 3.5 ± 1.3 bc cm^2
- Tunnel area (cm^2), day 7 (8.33 mg/kg, colony WB): 4.5 ± 1.8 b cm^2
- Food consumption (mg) day 12 (16.67 mg kg^−1, colony E): 0.0 ± 0.0 c mg
- Molting failure (%), day 7 (16.67 mg kg^−1, colony E): 13.9 ± 1.2 b %
- Survival (%) day 12 (16.67 mg kg^−1, colony E): 0.0 ± 0.0 b %
- Termite (%), workers counted in the releasing chambers on day 5 (16.67 mg kg^−1, colony E): 78.6 ± 4.0 a %
- Tunnel area (cm^2), day 12 (16.67 mg kg^−1, colony E): 0.0 ± 0.0 b cm^2
- Survival (%) day 8 (16.67 mg/kg sand, colony BS): 6.8 ± 6.7 b %
- Termite (%) day 6, percent workers in the releasing chambers (16.67 mg/kg sand, colony BS): 39.8 ± 8.8 b %
- Tunnel area (cm^2) day 6 (16.67 mg/kg sand, colony BS): 1.4 ± 0.9 b cm^2
- Consumption (mg) day 8 (16.67 mg/kg sand, colony BS): 3.3 ± 3.3 b mg
- Food consumption (mg) day 12 (16.67 mg/kg, colony WB): 3.3 ± 2.1 b mg
- Survival (%) day 12 (16.67 mg/kg, colony WB): 0.0 ± 0.0 b %
- Tunnel area (cm^2), day 2 (16.67 mg/kg, colony WB): 0.9 ± 0.4 a cm^2
- Tunnel area (cm^2), day 3 (16.67 mg/kg, colony WB): 1.6 ± 1.0 bc cm^2
- Tunnel area (cm^2), day 4 (16.67 mg/kg, colony WB): 1.7 ± 1.0 c cm^2
- Tunnel area (cm^2), day 7 (16.67 mg/kg, colony WB): 0.7 ± 0.5 b cm^2
- Food consumption (mg) day 12 (33.33 mg kg^−1, colony E): 0.0 ± 0.0 c mg
- Molting failure (%), day 7 (33.33 mg kg^−1, colony E): 15.9 ± 2.4 b %
- Survival (%) day 12 (33.33 mg kg^−1, colony E): 0.0 ± 0.0 b %
- Termite (%), workers counted in the releasing chambers on day 5 (33.33 mg kg^−1, colony E): 79.6 ± 2.2 a %
- Tunnel area (cm^2), day 12 (33.33 mg kg^−1, colony E): 0.0 ± 0.0 b cm^2
- Survival (%) day 8 (33.33 mg/kg sand, colony BS): 19.1 ± 9.1 b %
- Termite (%) day 6, percent workers in the releasing chambers (33.33 mg/kg sand, colony BS): 39.8 ± 10.2 b %
- Tunnel area (cm^2) day 6 (33.33 mg/kg sand, colony BS): 5.5 ± 2.1 b cm^2
- Consumption (mg) day 8 (33.33 mg/kg sand, colony BS): 11.7 ± 8.2 b mg
- Food consumption (mg) day 12 (33.33 mg/kg, colony WB): 3.3 ± 2.1 b mg
- Survival (%) day 12 (33.33 mg/kg, colony WB): 0.1 ± 0.1 b %
- Tunnel area (cm^2), day 2 (33.33 mg/kg, colony WB): 0.0 ± 0.0 a cm^2
- Tunnel area (cm^2), day 3 (33.33 mg/kg, colony WB): 0.0 ± 0.0 c cm^2
- Tunnel area (cm^2), day 4 (33.33 mg/kg, colony WB): 0.0 ± 0.0 c cm^2
- Tunnel area (cm^2), day 7 (33.33 mg/kg, colony WB): 0.0 ± 0.0 b cm^2
- Survival (%) day 8 (50.0 mg/kg sand, colony BS): 1.8 ± 1.8 b %
- Termite (%) day 6, percent workers in the releasing chambers (50.0 mg/kg sand, colony BS): 31.2 ± 2.8 b %
- Tunnel area (cm^2) day 6 (50.0 mg/kg sand, colony BS): 2.5 ± 1.1 b cm^2
- Consumption (mg) day 8 (50.0 mg/kg sand, colony BS): 0.0 ± 0.0 b mg
- Food consumption (mg) day 12 (66.67 mg/kg, colony WB): 4.2 ± 3.3 b mg
- Survival (%) day 12 (66.67 mg/kg, colony WB): 0.0 ± 0.0 b %
- Tunnel area (cm^2), day 2 (66.67 mg/kg, colony WB): 0.4 ± 0.2 a cm^2
- Tunnel area (cm^2), day 3 (66.67 mg/kg, colony WB): 0.4 ± 0.2 c cm^2
- Tunnel area (cm^2), day 4 (66.67 mg/kg, colony WB): 0.4 ± 0.2 c cm^2
- Tunnel area (cm^2), day 7 (66.67 mg/kg, colony WB): 0.4 ± 0.2 b cm^2
- Survival (%) day 8 (100.0 mg/kg sand, colony BS): 0.0 ± 0.0 b %
- Termite (%) day 6, percent workers in the releasing chambers (100.0 mg/kg sand, colony BS): 79.8 ± 8.7 a %
- Tunnel area (cm^2) day 6 (100.0 mg/kg sand, colony BS): 3.3 ± 1.6 b cm^2
- Consumption (mg) day 8 (100.0 mg/kg sand, colony BS): 0.0 ± 0.0 b mg
- Survival (%) day 8 (200.0 mg/kg sand, colony BS): 1.3 ± 1.3 b %
- Termite (%) day 6, percent workers in the releasing chambers (200.0 mg/kg sand, colony BS): 81.8 ± 6.0 a %
- Tunnel area (cm^2) day 6 (200.0 mg/kg sand, colony BS): 0.0 ± 0.0 b cm^2
- Consumption (mg) day 8 (200.0 mg/kg sand, colony BS): 0.0 ± 0.0 b mg
- mortality at 4.16 mg/kg [1]: 35.9 ± 4.4%
- mortality at 8.33 mg/kg [1]: 71.8 ± 8.8%
- mortality at 16.67 mg/kg [1]: 99.5 ± 0.5%
- mortality at 33.33 mg/kg [1]: 100%
- Food consumption (all treatments 16.67 to 200 mg/kg, control 98.3 mg, day 8): ≤ 11.7 mg
- concentration giving significant reduction in tunneling and feeding activity (as low as): 8 mg/kg sand
- concentration at which no food was consumed (colony BS, day 8): ≥ 50 mg/kg
- concentration at which no termite reached the feeding chamber (colony E): > 8.16 mg/kg
- concentration forming an effective barrier (toxic, inhibits tunneling and feeding) (treated sand): ≥ 8.33 mg/kg
